This assay deals with CEM cells HIV-1 protection, formazan growth assay. The experiment in a line: NCI AIDS Antiviral Assay. The following applies: for IC50: measured here: growth of uninfected CEM cells. In short, it runs like this: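 Protection of CEM cells against HIV-1 measured as cell growth via soluble formazan read-out, with five concentrations tested on both infected and uninfected cells; failure to protect may reflect toxicity.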

Broadly, the EC50 is the concentration giving half of the maximal effect. In general, IC50 refers to the concentration at which inhibition is half-maximal. Low values mean higher potency, high ones lower potency.

Activity calls are given as the source filed them.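 How the source made its calls: active means compounds giving half or more protection of infected cells from virus-caused growth loss, again on retest; inactive means the rest.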 Where a SMILES comes first, the peptide text is derived from it. [ ]: non-standard residue; d: D form. ξ: configuration not given here. Ac5c = NC1(C(=O)O)CCCC1; ξS = NC(CO)C(=O)O

In the case of `O=C1/C=C/C(=O)OCCCC(=O)/C=C/C(=O)OCCC1`, the result was inactive. Take `O=C(/C=C/c1ccc(Cl)c(Cl)c1)C1CCC(Cl)CC1` (centres undefined): the EC50 is more than 6.31 µM and the concentration for half-maximal inhibition (IC50) is more than 6.31 µM. For `N=N/C(=C\c1c(O)[nH]c2ccccc12)c1ccccc1`, the EC50 was more than 200 µM and the half-maximal inhibitory concentration (IC50) was 3.31 µM.

Regarding `CCO[C@@H]1OC(=O)[C@H]2C(c3ccc(Cl)cc3)=NO[C@@H]12`, the EC50 was more than 35.5 µM and the IC50 was more than 35.5 µM. For the compound `COc1ccccc1C1SCC(=O)N1c1ccc(-n2c(-c3ccccc3)nc3ccccc3c2=O)cc1` (centres undefined), the EC50 is more than 200 µM and the IC50 worked out at 135 µM. For the compound `O=C1C2=C(c3ccccc31)C(c1ccc([N+](=O)[O-])cc1)NC(=S)N2` (centres undefined), the EC50 was more than 138 µM and the half-inhibitory concentration (IC50) was 28.2 µM. Taken in the same sequence, the figures for `O=C(O)/C=C/C=C/c1ccccc1` were more than 200 µM and more than 200 µM. Taken in the same sequence, the figures for `CC1OC(OC2C(O[C@H]3CC[C@@]4(C)[C@@H](CC[C@@H]5[C@@H]4CC[C@]4(C)[C@@H]6[C@H](C[C@@H]54)O[C@]4(CC[C@@H](C)CO4)[C@H]6C)C3)OC(CO)C(OC3OC(CO)C(O)C(OC4OCC(O)C(O)C4O)C3OC3OCC(O)C(O)C3O)C2O)C(O)C(O)C1O` (some centres undefined) were more than 2 µM and 0.832 µM. Turning to `O=C(O)c1cc(N=Cc2cc(O)ccc2O)ccc1O`, the EC50 is more than 182 µM and the IC50 stood at 22.9 µM. Taken in the same sequence, the figures for `CC1(C)CC(C)(Br)C(Br)C(=O)C1C(O)(C(F)(F)F)C(F)(F)F` (centres undefined) were more than 200 µM and 33.1 µM. In the same order, the values of `O=C(NS(=O)(=O)Nc1ccccc1)OC1CCCC1` are more than 200 µM and more than 200 µM. In the same order, the values of `Cc1nc2n(C)c3ncn(Cc4ccccc4)c3c(=O)n2c1/C=C/C(C)C` are more than 33.1 µM and more than 33.1 µM.

On to `N#CCCSC1SC(=C2SC3=C(SCCS3)S2)SC1SCCC#N` (centres undefined), for which the EC50 is more than 200 µM and the IC50 is more than 200 µM. In the case of `S=C(N/N=C/c1ccccc1)NC12CC3CC(CC(C3)C1)C2`, the outcome was inactive. For the compound `CCCCCCCCNC(=S)/N=C/c1c(O)c2ccccc2oc1=O`, the EC50 is more than 200 µM and the IC50 worked out at 38.9 µM. Taken in the same sequence, the figures for `O=[N+]([O-])c1c(C=Nc2ccccc2)oc(-c2c(O)ccc3ccccc23)c1-c1c(O)ccc2ccccc12` were more than 200 µM and 31.6 µM. Taken in the same sequence, the figures for `O=C1NCCN1C(=O)Nc1ccc(S(=O)(=O)c2ccc([N+](=O)[O-])cc2)cc1` were more than 200 µM and 74.1 µM. As for `CCOP(=O)(OCC)/C(C#N)=C/c1cccc([N+](=O)[O-])c1`, the EC50 was more than 813 µM and the IC50 stood at 166 µM.

`O=S(=O)(Sc1ccccc1)c1ccccc1`: the EC50 is more than 81.3 µM and the 50% inhibitory concentration (IC50) stood at 13.8 µM. Taken in the same sequence, the figures for `Cc1cn(C2OC(CO)CC2F)c(=O)[nH]c1=O` (centres undefined) were more than 646 µM and more than 646 µM. On to `c1cncc(C2c3[nH]c4ccccc4c3CCN2CCN2CCCCC2)c1` (centres undefined), for which the EC50 is more than 3.98 µM and the IC50 is more than 3.98 µM. On to `N=C(N)Cn1cnc2ccccc21`, for which the EC50 was more than 5500 µM and the IC50 is 4680 µM. Taken in the same sequence, the figures for `C=CC1=C(C)C2=NC1=CC1=NC(=CC3=C(C)C4=C(O)C(C(=O)O)C(=C5NC(=C2)C(C)C5CCC(=O)O)C4=N3)C(CC)=C1C` (centres undefined) were more than 39.8 µM and more than 39.8 µM. Regarding `COc1ccc(CC2=NCCc3cc(OC)c(OC)cc32)cc1Br`, the EC50 was more than 240 µM and the concentration for half-maximal inhibition (IC50) came out at 3.47 µM.

As for `O=C(O)c1ccc(CS(=O)c2ccccc2C(=O)O)c([N+](=O)[O-])c1` (centres undefined), the EC50 is more than 708 µM and the IC50 was more than 708 µM. Take `COc1ccc(-c2c(C#N)c(O)n(NS(=O)(=O)c3ccc(C)cc3)c(=O)c2C#N)cc1`: the EC50 is more than 200 µM and the IC50 stood at 56.2 µM. Take `Nc1nc(Cl)cc(OCC2(CO)CC(OCc3ccccc3)C2)n1` (centres undefined): the EC50 is more than 200 µM and the IC50 turned out to be 41.7 µM. For the compound `Nc1cc([As](=O)(O)O)ccn1`, the EC50 is more than 200 µM and the IC50 is more than 200 µM.

As for `COc1ccc(CCn2ccc(C)n2)c(OC)c1`, the EC50 was more than 200 µM and the half-inhibitory concentration (IC50) is more than 200 µM.

On to `CC(C)COC(=O)c1ccc(N=Cc2ccc(C=Nc3ccc(C(=O)OCC(C)C)cc3)cc2)cc1`, for which the EC50 is more than 10.7 µM and the half-maximal inhibitory concentration (IC50) is more than 10.7 µM. As for `Cc1ccc(S(=O)(=O)OC2C(O)C(CO)OC2n2c(Br)c(C(N)=O)c3c(N)ncnc32)cc1` (centres undefined), the EC50 was more than 200 µM and the IC50 was more than 200 µM.

Turning to `CC(C)O[C@H]1N(C2CC(N=[N+]=[N-])C(CO)O2)C(=O)NC(=O)[C@]1(C)Cl` (some centres undefined), the EC50 is more than 200 µM and the IC50 was more than 200 µM. On to `c1ccc(NNC2=NCCN2)cc1`, for which the EC50 is more than 200 µM and the half-inhibitory concentration (IC50) came to 55 µM. Taken in the same sequence, the figures for `CC(C)C12C=CC(C)(CC1)n1c(=O)c3cc4ccccc4cc3c(=O)n12` (centres undefined) were more than 4.17 µM and more than 4.17 µM.

With `CN1CN(C)N(C(=O)c2ccccc2)CN1C(=O)c1ccccc1`, the EC50 is more than 200 µM and the IC50 stood at 97.7 µM. Taken in the same sequence, the figures for `O=C1CSC(c2ccc(Cl)cc2)N1N1C(=O)CSC1c1ccc(Cl)cc1` (centres undefined) were more than 151 µM and more than 151 µM. Turning to `COc1cc2oc(=O)cc(C)c2c(OC)c1OC`, the EC50 was more than 200 µM and the IC50 was more than 200 µM. `CCOC(=O)c1nc2ccc(C(F)(F)F)cc2nc1Oc1ccc(F)cc1`: the EC50 is more than 200 µM and the 50% inhibitory concentration (IC50) is more than 200 µM. Turning to `O=[N+]([O-])c1ccc2nncc(N3CC3)c2c1`, the outcome was inactive. Regarding `CC1NC(=O)COC1c1ccccc1` (centres undefined), the EC50 is more than 200 µM and the half-inhibitory concentration (IC50) was more than 200 µM.

Take `CCOC(=O)C(CO)NC(=O)C1(NC(C)=O)CCCC1` (centres undefined) (Ac-[Ac5c]-[ξS]-OEt): the EC50 is more than 200 µM and the IC50 was more than 200 µM. As for `C/C=C/C(=O)C(C)C1=CC(=O)C2=C(OC34CC[C@H](O)C(C)(C)[C@@H]3CC[C@H](C)C4(C)C2)C1=O` (some centres undefined), the outcome was inactive. With `Cc1cc(N(CCC#N)CCC#N)ccc1/C=C1N=C(/C=C/c2ccccc2)N(c2ccc(S(N)(=O)=O)cc2)C\1=O`, the outcome was inactive. `Cc1cccc2c(N)c3cccc(C(=O)NCCNCCN)c3nc12`: the EC50 is more than 0.2 µM and the concentration for half-maximal inhibition (IC50) is 0.11 µM. In the same order, the values of `COc1ccc(C(C(N)=O)N2CCOCC2)cc1` (centres undefined) are 129 µM and more than 200 µM. Regarding `CC1(C(=O)Nc2ccc3cc4ccccc4cc3c2)CC2(C)CC(C)(C1)C(O)NC2=O` (centres undefined), the outcome was inactive. `C[C@]12OC(=O)[C@]3(O)CC[C@H]4[C@@H](C[C@@H](O)[C@@]5(Cl)CC=CC(=O)[C@]45C)[C@]45OCC6C(=O)O[C@@H]1C[C@@]6(C)[C@H](C4=O)[C@@]32O5` (some centres undefined): the EC50 was more than 2 µM and the concentration for half-maximal inhibition (IC50) is 0.871 µM. Taken in the same sequence, the figures for `C=Cc1cc[n+](Cc2ccc(C[n+]3ccc(C=C)cc3)cc2)cc1` were more than 166 µM and 85.1 µM. In the same order, the values of `CCC1(CC)C(=O)NN(C(=O)c2ccccc2)C1=O` are more than 200 µM and more than 200 µM. Taken in the same sequence, the figures for `O=C(Nc1ccc(/C=C\c2ccc(NC(=O)c3ccc4ccccc4c3O)cc2S(=O)(=O)O)c(S(=O)(=O)O)c1)c1ccc2ccccc2c1O` were 126 µM and more than 200 µM.
